Assay results: patent publication US20240350440A1, “EXTRACTION OF ABSCISIC ACID FROM STRAWBERRIES” (KING FAISAL UNIVERSITY, priority 2023, published 2024)
Marks after values point to notes of the source that are not given here.

Key:
Format in all cases: in vivo
[1] = test system: albino rat after inducing myocardial infarction disease; assay: Electrocardiogram assessment in adrenaline-induced myocardial infarction; conditions: MI induced by high dose of adrenaline
Experimental: (§1) The extracted and purified ABA was tested on an albino rat after inducing myocardial infarction disease by using a high dose of adrenaline at Alexandria faculty of medicine and all tests of examination were performed (chemical, electrocardiograph Histological).

[2] = test system: albino rat after inducing myocardial infarction disease; assay: Histopathological assessment of H&E-stained heart tissue; parameters: key: grade 1 (normal histological the appearance of the myocardium); grade 2 (focal necrosis of myocardium); grade 3 (focal necrosis of myocardial fiber with neutrophil infiltration and interstitial edema); grade 4 (extensive necrosis of myocardial fiber with hemorrhage, interstitial edema, marked neutrophil infiltration and severe myofibrillary degeneration); conditions: MI rat
Experimental: as §1
With reference to the Figures, the histopathological assessment of H&E-stained (hematoxylin and eosin stained) heart tissue was scored according to severity of myocardial changes: grade 1 (normal histological the appearance of the myocardium), grade 2 (focal necrosis of myocardium), grade 3 (focal necrosis of myocardial fiber with neutrophil infiltration and interstitial edema), and grade 4 (extensive necrosis of myocardial fiber with hemorrhage, interstitial edema, marked neutrophil infiltration and severe myofibrillary degeneration).

[3] = test system: albino rat after inducing myocardial infarction disease; assay: Biological cardiac markers in adrenaline-induced myocardial infarction; conditions: MI induced by high dose of adrenaline
Experimental: as §1

[4] = test system: albino rat after inducing myocardial infarction disease; assay: Oxidative stress markers and antioxidant enzymes in adrenaline-induced myocardial infarction; conditions: MI induced by high dose of adrenaline
Experimental: as §1

SMILES | COP (mean ml/min) [1] | HR (mean b/min) [1] | RR (interval/sec) [1] | ST height [1] | carotid flow mean [1] | histopathological score, severity of myocardial changes [2] | CK-MB [3] | LDH [3] | Troponin [3] | Catalase [4] | GSH [4] | MDA [4] | NO [4]
CC1=CC(=O)CC(C)(C)C1(O)/C=C/C(C)=C\C(=O)O (centres unmarked) [Extracted ABA, abscisic acid] | 18.57 ± 1.04^b ml/min | 247.4 ± 9.69^cd b/min | 0.73 ± 0.034^b sec | 42.98 ± 4.05^b mm | 18.06 ± 1.15^b ml/min | grade 3 | 1.14 ± 0.02^bc U/L | 482.67 ± 4.63^bc U/L | 1.71 ± 0.02^b ng/ml | 97 ± 1.73^bc U/g protein | 21.66 ± 0.39^a μmol/g protein | 5.68 ± 0.27^bcd μmol/g protein | 47.78 ± 4.49^bc μM/g protein
CC1=CC(=O)CC(C)(C)[C@@]1(O)/C=C/C(C)=C\C(=O)O [Standard ABA, abscisic acid] | 17.52 ± 0.1^b ml/min | 255.77 ± 1.23^bc b/min | 0.7 ± 0.003^c sec | 39.33 ± 2.15^b mm | 17.4 ± 0.16^b ml/min | grade 3 | 1.22 ± 0.03^b U/L | 587.33 ± 30.12^b U/L | 1.72 ± 0.05^b ng/ml | 112 ± 23.09^abc U/g protein | 20.01 ± 2.27^a μmol/g protein | 6.13 ± 1.34^bc μmol/g protein | 48.61 ± 5.61^bc μM/g protein
